System: P12-Ichikawa
Test: cell viability relative to DMSO control; higher = less cytotoxic
Conditions: 48 h
Outline: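 Viability was expressed as a per-plate percentage of DMSO wells, with cell-free wells as background. Leukemia cells (NOMO1 or SEM at 500 cells/well, P12-Ichikawa at 1000 cells/well) were adapted for at least four passages in each medium and seeded in 1536-well plates (5 μl). Library compounds in DMSO were pin-dosed over an 11-point threefold series from 47 μM to 0.79 nM, and CellTiter-Glo One luminescence was read after 48 h at 37°C.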

[1] = HPLM + 10% dialyzed FBS, 0.000781 µM
[2] = HPLM + 10% dialyzed FBS, 0.00234 µM
[3] = HPLM + 10% dialyzed FBS, 0.00702 µM
[4] = HPLM + 10% dialyzed FBS, 0.0211 µM
[5] = HPLM + 10% dialyzed FBS, 0.0632 µM
[6] = HPLM + 10% dialyzed FBS, 0.19 µM
[7] = HPLM + 10% dialyzed FBS, 0.569 µM
[8] = HPLM + 10% dialyzed FBS, 1.71 µM
[9] = HPLM + 10% dialyzed FBS, 5.12 µM
[10] = HPLM + 10% dialyzed FBS, 15.4 µM
[11] = HPLM + 10% dialyzed FBS, 46.1 µM
[12] = RPMI 5 mM glucose + 10% FBS, 0.000781 µM
[13] = RPMI 5 mM glucose + 10% FBS, 0.00234 µM
[14] = RPMI 5 mM glucose + 10% FBS, 0.00702 µM
[15] = RPMI 5 mM glucose + 10% FBS, 0.0211 µM
[16] = RPMI 5 mM glucose + 10% FBS, 0.0632 µM
[17] = RPMI 5 mM glucose + 10% FBS, 0.19 µM
[18] = RPMI 5 mM glucose + 10% FBS, 0.569 µM
[19] = RPMI 5 mM glucose + 10% FBS, 1.71 µM
[20] = RPMI 5 mM glucose + 10% FBS, 5.12 µM
[21] = RPMI 5 mM glucose + 10% FBS, 15.4 µM
[22] = RPMI 5 mM glucose + 10% FBS, 46.1 µM
[23] = RPMI 5 mM glucose + 10% dialyzed FBS, 0.000781 µM
[24] = RPMI 5 mM glucose + 10% dialyzed FBS, 0.00234 µM
[25] = RPMI 5 mM glucose + 10% dialyzed FBS, 0.00702 µM
[26] = RPMI 5 mM glucose + 10% dialyzed FBS, 0.0211 µM
[27] = RPMI 5 mM glucose + 10% dialyzed FBS, 0.0632 µM
[28] = RPMI 5 mM glucose + 10% dialyzed FBS, 0.19 µM
[29] = RPMI 5 mM glucose + 10% dialyzed FBS, 0.569 µM
[30] = RPMI 5 mM glucose + 10% dialyzed FBS, 1.71 µM
[31] = RPMI 5 mM glucose + 10% dialyzed FBS, 5.12 µM
[32] = RPMI 5 mM glucose + 10% dialyzed FBS, 15.4 µM
[33] = RPMI 5 mM glucose + 10% dialyzed FBS, 46.1 µM

SMILES: C/C(=C\c1csc(C)n1)[C@@H]1C[C@@H]2O[C@@H]2CCC[C@H](C)[C@H](O)[C@@H](C)C(=O)C(C)(C)[C@@H](O)CC(=O)O1
- cell viability [1]: 37.2%
- cell viability [2]: 25.2%
- cell viability [3]: 25%
- cell viability [4]: 26.8%
- cell viability [5]: 27.1%
- cell viability [6]: 24.6%
- cell viability [7]: 23.9%
- cell viability [8]: 25.2%
- cell viability [9]: 21.1%
- cell viability [10]: 21.5%
- cell viability [11]: 22.6%
- cell viability [12]: 28.8%
- cell viability [13]: 14.8%
- cell viability [14]: 19.1%
- cell viability [15]: 20.3%
- cell viability [16]: 20%
- cell viability [17]: 20.6%
- cell viability [18]: 21.6%
- cell viability [19]: 20.8%
- cell viability [20]: 17.4%
- cell viability [21]: 18.1%
- cell viability [22]: 19.3%
- cell viability [23]: 67.2%
- cell viability [24]: 27.9%
- cell viability [25]: 33.6%
- cell viability [26]: 27.2%
- cell viability [27]: 34.7%
- cell viability [28]: 33.1%
- cell viability [29]: 33.7%
- cell viability [30]: 31.4%
- cell viability [31]: 29.1%
- cell viability [32]: 31.3%
- cell viability [33]: 35.9%

SMILES: C[N+](C)(C)CC(=O)O.[Cl-]
- cell viability [1]: 86.5%
- cell viability [2]: 92%
- cell viability [3]: 93%
- cell viability [4]: 92.6%
- cell viability [5]: 93.7%
- cell viability [6]: 87%
- cell viability [7]: 98.2%
- cell viability [8]: 89.8%
- cell viability [9]: 99.3%
- cell viability [10]: 88.2%
- cell viability [11]: 99.1%
- cell viability [12]: 86.4%
- cell viability [13]: 94.4%
- cell viability [14]: 90.9%
- cell viability [15]: 94.7%
- cell viability [16]: 91.8%
- cell viability [17]: 91.5%
- cell viability [18]: 98%
- cell viability [19]: 91.5%
- cell viability [20]: 94.1%
- cell viability [21]: 98%
- cell viability [22]: 93.7%
- cell viability [23]: 81.8%
- cell viability [24]: 87.4%
- cell viability [25]: 85.4%
- cell viability [26]: 86%
- cell viability [27]: 91.1%
- cell viability [28]: 82.4%
- cell viability [29]: 90.7%
- cell viability [30]: 88.1%
- cell viability [31]: 82.9%
- cell viability [32]: 90.4%
- cell viability [33]: 81.7%

SMILES: O=C(O)CSCC(=O)NC1CCSC1=O (stereo unspecified)
- cell viability [1]: 108%
- cell viability [2]: 108%
- cell viability [3]: 112%
- cell viability [4]: 120%
- cell viability [5]: 120%
- cell viability [6]: 129%
- cell viability [7]: 110%
- cell viability [8]: 114%
- cell viability [9]: 117%
- cell viability [10]: 115%
- cell viability [11]: 116%
- cell viability [12]: 106%
- cell viability [13]: 108%
- cell viability [14]: 114%
- cell viability [15]: 130%
- cell viability [16]: 123%
- cell viability [17]: 114%
- cell viability [18]: 115%
- cell viability [19]: 116%
- cell viability [20]: 111%
- cell viability [21]: 116%
- cell viability [22]: 118%
- cell viability [23]: 103%
- cell viability [24]: 110%
- cell viability [25]: 114%
- cell viability [26]: 114%
- cell viability [27]: 117%
- cell viability [28]: 116%
- cell viability [29]: 115%
- cell viability [30]: 112%
- cell viability [31]: 106%
- cell viability [32]: 127%
- cell viability [33]: 111%

SMILES: COc1ccc(C(=O)CC(=O)c2ccc(C(C)(C)C)cc2)cc1
- cell viability [1]: 105%
- cell viability [2]: 112%
- cell viability [3]: 113%
- cell viability [4]: 110%
- cell viability [5]: 120%
- cell viability [6]: 116%
- cell viability [7]: 119%
- cell viability [8]: 113%
- cell viability [9]: 118%
- cell viability [10]: 108%
- cell viability [11]: 97.2%
- cell viability [12]: 101%
- cell viability [13]: 97.6%
- cell viability [14]: 104%
- cell viability [15]: 106%
- cell viability [16]: 116%
- cell viability [17]: 111%
- cell viability [18]: 103%
- cell viability [19]: 109%
- cell viability [20]: 112%
- cell viability [21]: 106%
- cell viability [22]: 90.7%
- cell viability [23]: 98.1%
- cell viability [24]: 107%
- cell viability [25]: 111%
- cell viability [26]: 112%
- cell viability [27]: 110%
- cell viability [28]: 119%
- cell viability [29]: 117%
- cell viability [30]: 113%
- cell viability [31]: 120%
- cell viability [32]: 110%
- cell viability [33]: 91.1%

SMILES: CN[C@H]1[C@H](O[C@@H]2[C@H](O[C@@H]3[C@@H](O)[C@@H](O)[C@@H](NC(=N)N)[C@@H](O)[C@H]3NC(=N)N)O[C@H](C)[C@@]2(O)C=O)O[C@@H](CO)[C@@H](O)[C@H]1O
- cell viability [1]: 117%
- cell viability [2]: 117%
- cell viability [3]: 120%
- cell viability [4]: 108%
- cell viability [5]: 112%
- cell viability [6]: 115%
- cell viability [7]: 110%
- cell viability [8]: 110%
- cell viability [9]: 99.9%
- cell viability [10]: 108%
- cell viability [11]: 111%
- cell viability [12]: 108%
- cell viability [13]: 109%
- cell viability [14]: 107%
- cell viability [15]: 112%
- cell viability [16]: 120%
- cell viability [17]: 122%
- cell viability [18]: 102%
- cell viability [19]: 95.5%
- cell viability [20]: 94.7%
- cell viability [21]: 97.8%
- cell viability [22]: 103%
- cell viability [23]: 118%
- cell viability [24]: 115%
- cell viability [25]: 136%
- cell viability [26]: 123%
- cell viability [27]: 112%
- cell viability [28]: 105%
- cell viability [29]: 89.3%
- cell viability [30]: 86%
- cell viability [31]: 105%
- cell viability [32]: 104%
- cell viability [33]: 116%

SMILES: CC(C)(C)Cn1c(N)nc2ccc(-c3[nH]c(C(C)(C)C)nc3-c3ccc(F)cc3)nc21
- cell viability [1]: 92.1%
- cell viability [2]: 96.3%
- cell viability [3]: 92.3%
- cell viability [4]: 96%
- cell viability [5]: 87.2%
- cell viability [6]: 78.7%
- cell viability [7]: 90.1%
- cell viability [8]: 78.9%
- cell viability [9]: 91.5%
- cell viability [10]: 85.3%
- cell viability [11]: 85.4%
- cell viability [12]: 95.4%
- cell viability [13]: 83.8%
- cell viability [14]: 78.3%
- cell viability [15]: 90.6%
- cell viability [16]: 86.4%
- cell viability [17]: 94.1%
- cell viability [18]: 83%
- cell viability [19]: 81.2%
- cell viability [20]: 77.9%
- cell viability [21]: 95.5%
- cell viability [22]: 89.1%
- cell viability [23]: 85.8%
- cell viability [24]: 83.4%
- cell viability [25]: 85.4%
- cell viability [26]: 84.5%
- cell viability [27]: 86.1%
- cell viability [28]: 89.1%
- cell viability [29]: 83.6%
- cell viability [30]: 84.1%
- cell viability [31]: 77.9%
- cell viability [32]: 83%
- cell viability [33]: 81%

SMILES: COc1nccc(-c2c(-c3ccc(F)cc3)ncn2C2CCC(O)CC2)n1 (stereo unspecified)
- cell viability [1]: 121%
- cell viability [2]: 117%
- cell viability [3]: 112%
- cell viability [4]: 108%
- cell viability [5]: 118%
- cell viability [6]: 115%
- cell viability [7]: 103%
- cell viability [8]: 105%
- cell viability [9]: 101%
- cell viability [10]: 98.3%
- cell viability [11]: 75.1%
- cell viability [12]: 113%
- cell viability [13]: 120%
- cell viability [14]: 122%
- cell viability [15]: 116%
- cell viability [16]: 111%
- cell viability [17]: 110%
- cell viability [18]: 117%
- cell viability [19]: 112%
- cell viability [20]: 110%
- cell viability [21]: 106%
- cell viability [22]: 86.3%
- cell viability [23]: 126%
- cell viability [24]: 121%
- cell viability [25]: 114%
- cell viability [26]: 117%
- cell viability [27]: 120%
- cell viability [28]: 123%
- cell viability [29]: 118%
- cell viability [30]: 115%
- cell viability [31]: 115%
- cell viability [32]: 115%
- cell viability [33]: 41.2%
